From ChEMBL document CHEMBL1129824, “Nonpeptidic inhibitors of recombinant human calpain I” (Bioorg Med Chem Lett, 1997) come the findings set out here.

SMILES strings stand for the structures.

Assay [1] concerns the target Chymotrypsinogen A (Bos taurus) (UniProt P00766). Put plainly: Inhibitory activity using serine protease, alpha-chymotrypsin with Succ-Ala-Ala-Pro-Phe-AMC as substrate. The percent inhibition at 10 uM concentration, was reported.
Assay [2] addresses Cathepsin B (Homo sapiens, UniProt P07858). The experiment in a line: Inhibitory activity using cysteine protease, Cathepsin B with Cbz-Phe-Arg-AMC as substrate.
In assay [3] the target is Prothrombin (Homo sapiens) (UniProt P00734). The experiment in a line: Inhibitory activity using serine protease, thrombin with Cbz-Phe-Val-Arg-AMC as substrate. The percent inhibition at 10 uM concentration, was reported.
For assay [4], the target named is T1, Calpain-1 catalytic subunit (Homo sapiens, UniProt P07384).
T1 sequence (P07384 whole entry): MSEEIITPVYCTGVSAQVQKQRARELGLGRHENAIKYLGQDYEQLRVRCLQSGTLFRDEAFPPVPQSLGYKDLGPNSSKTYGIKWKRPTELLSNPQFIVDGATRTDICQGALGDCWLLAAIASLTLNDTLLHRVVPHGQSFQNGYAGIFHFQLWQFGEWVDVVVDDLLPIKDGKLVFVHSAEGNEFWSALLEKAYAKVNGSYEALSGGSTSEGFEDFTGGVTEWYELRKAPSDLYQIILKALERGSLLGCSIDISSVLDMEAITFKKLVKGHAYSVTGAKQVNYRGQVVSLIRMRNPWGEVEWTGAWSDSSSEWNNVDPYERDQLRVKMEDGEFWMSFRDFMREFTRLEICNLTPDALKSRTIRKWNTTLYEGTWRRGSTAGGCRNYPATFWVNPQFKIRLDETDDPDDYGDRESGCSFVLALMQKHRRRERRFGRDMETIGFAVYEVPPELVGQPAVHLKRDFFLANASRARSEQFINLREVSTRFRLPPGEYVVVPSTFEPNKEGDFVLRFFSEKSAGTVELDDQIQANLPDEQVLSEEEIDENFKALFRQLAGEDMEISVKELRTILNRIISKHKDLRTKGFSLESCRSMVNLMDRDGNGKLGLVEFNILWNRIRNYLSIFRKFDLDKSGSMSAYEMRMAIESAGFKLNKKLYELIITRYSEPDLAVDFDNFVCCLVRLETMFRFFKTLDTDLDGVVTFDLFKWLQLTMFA
Put plainly: Inhibitory activity using recombinant human Calpain 1 with Suc-Leu-Tyr-MNA as substrate.

In the case of `CC(C)C[C@H](CCSc1ccc2ccccc2c1)C(=O)N[C@H](C=O)CC(C)C`, the figures for the inhibition in assay [1] and in assay [3] were 11% and 5%, respectively. Further, the IC50 (in general, the concentration that inhibits the measured activity by half) in assay [2] was found to be 60 nM; in assay [4] it was 75 nM.

In the case of `CC(C)C[C@@H](CCS(=O)(=O)c1ccc2ccccc2c1)C(=O)N[C@H](C=O)CC(C)C`, the figures for the inhibition in assay [1] and in assay [3] were 12% and 2%, respectively.

Take `CC(C)C[C@H](CCS(=O)(=O)c1ccc2ccccc2c1)C(=O)N[C@H](C=O)CC(C)C`: the inhibition – broadly, the relative decrease from the control value, in per cent – was determined as 11% in assay [1] and 1% in assay [3].

As to `CC(C)C[C@H](CC[S+]([O-])c1ccc2ccccc2c1)C(=O)N[C@H](C=O)CC(C)C` (some centres not stated), the figures for the inhibition in assay [1] and in assay [3] were 18% and 2%, respectively. The IC50 was 60 nM in assay [2] and 30 nM in assay [4].
